Data as given in PubChem BioAssay (NCI).
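Interpolation was linear, between the two tested concentrations surrounding the appropriate level; five concentrations were tested over 48 hours in 96-well plates. GI50 is the concentration that inhibits growth by half. TGI denotes the concentration required for complete inhibition of growth.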

Assays:
Test in all cases: NCI-60 cell line screen, 48 h
HOP-92 NSCLC = system: HOP-92 NSCLC
CCRF-CEM leukemia = system: CCRF-CEM leukemia
MDA-MB-231 breast = system: MDA-MB-231 breast
SR leukemia = system: SR leukemia
DU-145 prostate = system: DU-145 prostate
SK-MEL-28 melanoma = system: SK-MEL-28 melanoma
MALME-3M melanoma = system: MALME-3M melanoma
HCC-2998 colon = system: HCC-2998 colon
K-562 leukemia = system: K-562 leukemia
IGROV1 ovarian = system: IGROV1 ovarian

Question: How did the GI50 (HOP-92 NSCLC) turn out when NC(=O)c1cc(Cl)ccc1NC(=O)c1ccccc1-c1ccccc1 was run?
Answer: 3960 nM

Question: And the TGI (HOP-92 NSCLC)?
Answer: 61.5 µM

Question: And the GI50 (CCRF-CEM leukemia)?
Answer: 0.499 µM

Question: And the TGI (CCRF-CEM leukemia)?
Answer: > 100 µM

Question: What about the GI50 (MDA-MB-231 breast) of the same compound?
Answer: 1890 nM

Question: And the TGI (MDA-MB-231 breast)?
Answer: 43.5 µM

Question: And the GI50 (SR leukemia)?
Answer: 439 nM

Question: And the TGI (SR leukemia)?
Answer: 63 µM

Question: What about the GI50 (DU-145 prostate) of the same compound?
Answer: 597 nM

Question: What about the TGI (DU-145 prostate) of the same compound?
Answer: 16 µM

Question: What about the GI50 (SK-MEL-28 melanoma) of the same compound?
Answer: 3650 nM

Question: And the TGI (SK-MEL-28 melanoma)?
Answer: > 100 µM

Question: What about the GI50 (MALME-3M melanoma) of the same compound?
Answer: 620 nM

Question: What about the TGI (MALME-3M melanoma) of the same compound?
Answer: 62.9 µM

Question: And the GI50 (HCC-2998 colon)?
Answer: 2990 nM

Question: And the TGI (HCC-2998 colon)?
Answer: 31.6 µM

Question: And the GI50 (K-562 leukemia)?
Answer: 416 nM

Question: And the TGI (K-562 leukemia)?
Answer: > 100 µM

Question: What about the GI50 (IGROV1 ovarian) of the same compound?
Answer: 1550 nM

Question: And the TGI (IGROV1 ovarian)?
Answer: > 100 µM

Question: With CN(C)CCCN=c1cc2c(=O)n(CCCN(C)C)c(=O)c3c(NCCCN(C)C)cc4c(O)n(CCCN(C)C)c(=O)c1c4c3-2 as the compound, how does the GI50 (HOP-92 NSCLC) read?
Answer: 1810 nM

Question: And the TGI (HOP-92 NSCLC)?
Answer: 14.2 µM

Question: What about the GI50 (CCRF-CEM leukemia) of the same compound?
Answer: 5.84 µM

Question: What about the TGI (CCRF-CEM leukemia) of the same compound?
Answer: 54.8 µM

Question: What about the GI50 (MDA-MB-231 breast) of the same compound?
Answer: 3020 nM

Question: What about the TGI (MDA-MB-231 breast) of the same compound?
Answer: 16.3 µM

Question: What about the GI50 (SR leukemia) of the same compound?
Answer: 8390 nM

Question: What about the TGI (SR leukemia) of the same compound?
Answer: 56 µM

Question: What about the GI50 (DU-145 prostate) of the same compound?
Answer: 2500 nM

Question: What about the TGI (DU-145 prostate) of the same compound?
Answer: 9.51 µM

Question: And the GI50 (SK-MEL-28 melanoma)?
Answer: 1960 nM

Question: What about the TGI (SK-MEL-28 melanoma) of the same compound?
Answer: 4.79 µM

Question: What about the GI50 (MALME-3M melanoma) of the same compound?
Answer: 1270 nM

Question: What about the TGI (MALME-3M melanoma) of the same compound?
Answer: 5.59 µM

Question: What about the GI50 (HCC-2998 colon) of the same compound?
Answer: 5680 nM

Question: And the TGI (HCC-2998 colon)?
Answer: 22.9 µM

Question: What about the GI50 (K-562 leukemia) of the same compound?
Answer: 2130 nM

Question: What about the TGI (K-562 leukemia) of the same compound?
Answer: > 100 µM

Question: And the GI50 (IGROV1 ovarian)?
Answer: 2340 nM

Question: What about the TGI (IGROV1 ovarian) of the same compound?
Answer: 8.29 µM

Question: Which results are given for CCC(c1ccc(OC)cc1)C(CC)c1ccc(O)c(CN2CCCC2)c1 (stereo not given)?
Answer: GI50 (HOP-92 NSCLC): 1570 nM; TGI (HOP-92 NSCLC): 3.58 µM; GI50 (CCRF-CEM leukemia): 3.56 µM; TGI (CCRF-CEM leukemia): 13.5 µM; GI50 (MDA-MB-231 breast): 2490 nM; TGI (MDA-MB-231 breast): 6.03 µM; GI50 (SR leukemia): 1490 nM; TGI (SR leukemia): 4.62 µM; GI50 (DU-145 prostate): 5800 nM; TGI (DU-145 prostate): 19.1 µM; GI50 (SK-MEL-28 melanoma): 2040 nM; TGI (SK-MEL-28 melanoma): 4.57 µM; GI50 (MALME-3M melanoma): 1760 nM; TGI (MALME-3M melanoma): 3.95 µM; GI50 (HCC-2998 colon): 2290 nM; TGI (HCC-2998 colon): 4.38 µM; GI50 (K-562 leukemia): 1610 nM; TGI (K-562 leukemia): 5.59 µM; GI50 (IGROV1 ovarian): 8630 nM; TGI (IGROV1 ovarian): 23.6 µM

Question: What does the source list for CN(C1=NS(=O)(=O)N=C(N(C)c2ccccc2)O1)c1ccccc1?
Answer: TGI (HOP-92 NSCLC): 54.6 µM; TGI (CCRF-CEM leukemia): > 100 µM; TGI (MDA-MB-231 breast): 41 µM; TGI (SR leukemia): 44.7 µM; TGI (DU-145 prostate): 61.7 µM; TGI (SK-MEL-28 melanoma): 43.3 µM; TGI (MALME-3M melanoma): 49.7 µM; TGI (HCC-2998 colon): 36.7 µM; TGI (K-562 leukemia): 50.4 µM; TGI (IGROV1 ovarian): 75.7 µM

Question: What does the source list for CC(C)(C)N1CC(OC(N)=O)C1?
Answer: GI50 (HOP-92 NSCLC): > 100000 nM; TGI (HOP-92 NSCLC): > 100 µM; GI50 (CCRF-CEM leukemia): > 100 µM; TGI (CCRF-CEM leukemia): > 100 µM; GI50 (MDA-MB-231 breast): > 100000 nM; TGI (MDA-MB-231 breast): > 100 µM; GI50 (SR leukemia): > 100000 nM; TGI (SR leukemia): > 100 µM; GI50 (DU-145 prostate): > 100000 nM; TGI (DU-145 prostate): > 100 µM; GI50 (SK-MEL-28 melanoma): > 100000 nM; TGI (SK-MEL-28 melanoma): > 100 µM; GI50 (MALME-3M melanoma): > 100000 nM; TGI (MALME-3M melanoma): > 100 µM; GI50 (HCC-2998 colon): > 100000 nM; TGI (HCC-2998 colon): > 100 µM; GI50 (K-562 leukemia): > 100000 nM; TGI (K-562 leukemia): > 100 µM; GI50 (IGROV1 ovarian): > 100000 nM; TGI (IGROV1 ovarian): > 100 µM
